Test results published in patent US8815811B2, “Peptides and methods for their preparation and use” (Eli Lilly and Company, priority 2010, dated 2014).
Where no end group is shown, it is not given here. [ ]: non-standard residue; d: D form. 1Nal = N[C@@H](Cc1cccc2ccccc12)C(=O)O; Aib = CC(C)(N)C(=O)O

How the values were obtained:
Type in all cases: in vivo
[1] = system: diet-induced obese Long Evans rats; test: Effects on food intake, body weight, body composition and plasma lipids in DIO Long Evans rats
Description: Four to five months old male diet-induced obese Long Evans rats are used. Animals are individually housed in a temperature-controlled (24° C.) facility with a 12 hour light/dark cycle (lights on 22:00), and have free access to food (diet TD95217) and water. Animals are acclimated to the facility for at least 2 weeks. On day 0, body composition is determined by QNMR and rats are randomized to respective groups (n=6/group) based on body weight, % fat, and % lean mass. Compound is administered by subcutaneous injection on days 1, 4, 8, 11, and 15. […] After CO2 euthanasia, blood samples are taken by cardiac stick for analysis of exposure determination.

[2] = system: diet-induced obese (DIO) mice; test: Effects on food intake, body weight and body composition in DIO mice; settings: for Fat mass loss (g fat weight change for 14 days) / Total food intake (g total for 14 days) / Overall weight loss (g weight change for 14 days): DIO mice
Description: Effects on Food Intake, Body Weight and Body Composition in Diet-Induced Obese (DIO) Mice
Three to four months old male diet-induced obese (DIO) mice are used. Animals are individually housed in a temperature-controlled (24° C.) facility with a 12 hour light/dark cycle (lights on 22:00), and have free access to food and water. After 2 weeks acclimation to the facility, mice are randomized to treatment groups (n=8-10/group) so that each group has similar mean body weight and fat mass. Before the experiment, mice are subcutaneously (sc) injected with vehicle solution and weighed for 7 days to acclimate them to the procedures.
Vehicle or peptide analog (dose range 10-100 nmol/Kg) dissolved in vehicle is administered by sc injection to ad libitum fed DIO mice 30-90 minutes prior to the onset of the dark cycle […] for 2 to 4 weeks. Body weight and the weight of food plus the hopper are measured at the same time. Food consumed in the last 24 hours is calculated by subtracting current weight of food plus the hopper from that of the previous day. Absolute changes in body weight are calculated by subtracting the body weight of the animal prior to the first injection. On days −1 and 14, total fat mass is measured by nuclear magnetic resonance (NMR) using an Echo Medical System (Houston, Tex.) instrument. Fat free mass is calculated by subtracting fat mass from total body weight.

[3] = system: ovariectomized (OvX) Sprague Dawley rats; test: Skeletal effects in ovariectomized (OvX) Sprague Dawley rats
Description: Example 4 was evaluated in 6 months old, ovariectomized (OvX; see Endocrinology 144: 2008-2015), Sprague Dawley rats. Doses of 0, 2.9, 9.7, or 29 nmol/kg were given to the rats as daily subcutaneous injections starting 9 days post surgery. […] It should be noted that loss in body weight (8% in this study) can directly affect bone mass. Bone strength is load dependent and losing weight results in a lower load on bones that carry weight and as a consequence less impact is observed on skeletal parameters of bones that carry weight, i.e. the femur cortical bone. Statistical significances were evaluated by a one-way ANOVA followed by a Dunnett's test.

DIO mice = test: Oral glucose tolerance test after 2-week treatment in DIO mice
Description: Fifty-six hours after the last injection of compound in the DIO study above the animals were subjected to an oral glucose tolerance test. In short, mice were fasted for 16 hours prior to the start of the glucose tolerance test. At time 0, animals are given 2 g/kg dextrose by oral gavage. Blood is collected by tail bleeding taken 0, 15, 30, 60 and 120 minutes after glucose challenge. Glucose concentration is measured by glucometer.

Normal male Wistar rats = test: Intravenous glucose tolerance test in normal rats; settings: IVGTT; for insulin AUC: 0 to 30 min
Description: Effects on Blood Glucose Excursion During an Intravenous Glucose Tolerance Test in Normal Rats
Normal male Wistar rats (225-250 g) are used in the study. Animals are randomized into groups based on fed body weight and blood glucose. Animals are injected with vehicle or peptide analog (dose 3-400 μg peptide content/kg) 16 hours prior to the start of the test. Food is removed at the time of injection. Prior to the assay the animals are put under anesthesia, Phenobarbital 65 mg/kg i.p., and two catheters are inserted, one in the jugular vein and the other in the carotid artery. At time 0, animals are given 0.5 g glucose/kg through the venous catheter. Blood is collected from the carotid artery at time 0 (pre glucose), 2, 4, 6, 10, 20 and 30 minutes after glucose challenge. Glucose concentration is measured by glucometer. Insulin is measured by Mesoscale®. Efficacy is measured as the increase in total area under the insulin curve (=integrated plasma insulin values from t+0 to 30 min) as well as the area under the glucose curve which is a measure of the glucose excursion following the intravenous glucose challenge.

[4] = OvX rats, 2.9 nmol/kg daily sc, 35 days
[5] = OvX rats, 9.7 nmol/kg daily sc, 35 days
[6] = OvX rats, 29 nmol/kg daily sc, 35 days

Aib^2, Aib^13, Nal^22, Aib^29, Cys^43(PEG20K), Cys^44 (PEG20K)-GIP (Y[Aib]EGTFTSDYSI[Aib]LDKIAQRA[1Nal]VQWLIA[Aib]KGKKQEWKHQITQC(PEG 20 kDa)C(PEG 20 kDa)-NH2) [Example 4]
total cholesterol (plasma) ([1]; 10 nmol/Kg): 110 mg/dL
triglycerides (plasma) ([1]; 10 nmol/Kg): 488.7 mg/dL
free fatty acids (plasma) ([1]; 30 nmol/Kg): 0.82 mEq/L
total cholesterol (plasma) ([1]; 30 nmol/Kg): 104 mg/dL
triglycerides (plasma) ([1]; 30 nmol/Kg): 212.2 mg/dL
fat mass reduced ([1]; 30 nmol/Kg over 16 days): 1.8%
lean mass increased ([1]; 30 nmol/Kg over 16 days): 0.4%
fat mass reduced ([1]; 100 nmol/Kg over 16 days): 3.2%
lean mass increased ([1]; 100 nmol/Kg over 16 days): 1.8%
changes in body weight and body composition compared to vehicle-treated DIO rats ([1]; over 16 days): increasing the percentage of lean mass and decreasing the percentage of fat mass
amount of free fatty acids ([1]; versus vehicle): increased
amounts of plasma lipids, including triglycerides and total cholesterol ([1]; versus vehicle): lowered
cumulative food intake and body weight compared to vehicle-treated mice ([2]; 14-day DIO mouse studies, summary of Tables 6a and 6b): decreased
Fat mass loss (g fat weight change for 14 days) ([2]; Table 6a, 10 nmol/Kg): -3.6 ± 1.1 g
Total food intake (g total for 14 days) ([2]; Table 6a, 10 nmol/Kg): 28.4 ± 1.8 g
Overall weight loss (g weight change for 14 days) ([2]; Table 6a, 10 nmol/Kg sc every 3 days): -4.5 ± 0.3 g
Fat mass loss (g fat weight change for 14 days) ([2]; Table 6a, 30 nmol/Kg): -4.7 ± 0.4 g
Total food intake (g total for 14 days) ([2]; Table 6a, 30 nmol/Kg): 25.5 ± 2.6 g
Overall weight loss (g weight change for 14 days) ([2]; Table 6a, 30 nmol/Kg sc every 3 days): -6.0 ± 0.4 g
Fat mass loss (g fat weight change for 14 days) ([2]; Table 6b, 10 nmol/Kg): -3.6 ± 0.3 g
Overall weight loss (g weight change for 14 days) ([2]; Table 6b, 10 nmol/Kg): -4.9 ± 0.4 g
Total food intake (g total for 14 days) ([2]; Table 6b, 10 nmol/Kg): 26.9 ± 1.5 g
Bone mineral density (BMD) of lumbar vertebrae, MEAN [3, 4]: 557 mg/mL
Changes in bone mineral content (BMC) of lumbar vertebrae, Bone mineral density (mg), MEAN [3, 4]: 9.75 mg
Bone mineral density (BMD) of lumbar vertebrae, MEAN [3, 5]: 558 mg/mL
Changes in bone mineral content (BMC) of lumbar vertebrae, Bone mineral density (mg), MEAN [3, 5]: 9.98 mg
Bone mineral density (BMD) of lumbar vertebrae, MEAN [3, 6]: 588 mg/mL
Changes in bone mineral content (BMC) of lumbar vertebrae, Bone mineral density (mg), MEAN [3, 6]: 10.49 mg
reduction of food consumption and body weight ([3]; OvX rats, 2.9-29 nmol/kg daily, 35 days, dose responsive): up to 8%
OvX induced loss in bone mineral content and bone mineral density in lumbar vertebrae ([3]; OvX rats, 35 days): dose-dependently prevented
adverse effect on bone mineral density or bone mineral content in the femur and lumbar vertebra ([3]; OvX rats, 35 days): did not adversely affect
effect in mid femur cortical bone (BMC, BMD) ([3]; OvX rats, 35 days): no effect
fat mass ([3]; OvX rats, 35 days): decreased fat mass
lean mass ([3]; OvX rats, 35 days): no change
non-fasted serum glucose and triglycerides ([3]; OvX rats, 35 days): decreased
BMC and BMD in OvX rats ([3]; summary of Tables 8 and 9): improves
glucose excursion following an oral glucose load (DIO mice; DIO mice, summary of Tables 7a and 7b): significantly reduced
Glucose AUC, MEAN (DIO mice; Table 7a, OGTT 2 g/kg dextrose, 56 h after last injection, 10 nmol/Kg): 11725 mg·min/dL
Glucose AUC, MEAN (DIO mice; Table 7a, OGTT, 30 nmol/Kg): 10907 mg·min/dL
Glucose AUC, MEAN (DIO mice; Table 7b, OGTT, 10 nmol/Kg): 13719 mg·min/dL
insulin AUC and glucose AUC compared to vehicle-treated rats (Normal male Wistar rats): increased insulin AUC and decreased glucose AUC
glucose AUC (Normal male Wistar rats; 50 μg/Kg): 7730 mg·min/dL
insulin AUC (Normal male Wistar rats; 50 μg/Kg 16 hours before test): 150 ng·min/mL
glucose AUC (Normal male Wistar rats; 200 μg/Kg): 7420 mg·min/dL
insulin AUC (Normal male Wistar rats; 200 μg/Kg 16 hours before test): 161 ng·min/mL
